Structures are written as SMILES.

This assay addresses SARS2 coronavirus 3CL protease (Severe acute respiratory syndrome coronavirus 2, UniProt P0DTD1). Kind of assay: SARS2 Coronavirus 3CL Protease Assay (FRET). The format is biochemical. Conditions: 5 nM protease pre-incubated with compound 30 minutes; 15 uM peptide substrate; 4 h room temperature; read-out: FRET Potency (nM); IC50 values in the SARS2 3CLPro FRET assay. As for the experimental part: The enzymatic activity of SARS2 coronavirus 3CL protease was determined in a FRET (fluorescence resonance energy transfer)-based assay measuring the cleavage of a peptide substrate by recombinantly expressed and purified enzyme. Cleavage of the peptide SEQ ID NO: 1 (CPC Scientific) by SARS2 3CL protease was measured in reaction buffer (50 mM Hepes pH 7.5, 0.01% Triton X-100, 0.01% BSA, 2 mM DTT). […] Room temperature reactions (4 h) were quenched by addition of a high dose of inhibitor and read on an appropriate plate reader (excitation wavelength=495 nm, emission wavelength=520 nm). Data were analyzed by a standard 4 parameter fit to determine IC50 values.
`CNC(=O)C(=O)[C@H](CCC(C)F)NC(=O)c1cc(Cl)ccc1NC(=O)OC` (single isomer, unassigned) [Example 6A]: the IC50 was found to be 25.8 nM.

Take `CNC(=O)C(=O)[C@H](CCC(C)F)NC(=O)c1cc(Cl)ccc1NC(=O)OC` (single isomer, unassigned) [Example 6B]: the IC50 came to 154 nM.

Take `CNC(=O)C(=O)[C@H](CCC(C)F)NC(=O)c1cc(Cl)ccc1NC(=O)OC` (single isomer, unassigned) [Example 6C]: the IC50 is 13.6 nM.

As to `CNC(=O)C(=O)[C@H](CCC(C)F)NC(=O)c1cc(Cl)ccc1NC(=O)OC` (single isomer, unassigned) [Example 6D], the IC50 stood at 702 nM.

In the case of `CNC(=O)C(=O)[C@H](CCC(C)(F)F)NC(=O)c1cc(Cl)ccc1NC(=O)C1CC12CC2` (single isomer, unassigned) [Example 19], the IC50 turned out to be 10.5 nM.

`CNC(=O)C(=O)[C@H](CCC(C)(F)F)NC(=O)c1cc(Cl)ccc1NC(=O)C1CC12CC2` (single isomer, unassigned) [Example 33]: the IC50 turned out to be 21.5 nM.

Take `CNC(=O)C(=O)[C@H](CCC(C)(F)F)NC(=O)c1cc(Cl)ccc1NC(=O)c1ccnc(C(F)(F)F)c1` [Example 1, (S)—N-(4-chloro-2-((6,6-difluoro-1-(methylamino)-1,2-dioxoheptan-3-yl)carbamoyl)phenyl)-2-(trifluoromethyl)isonicotinamide]: the IC50 was found to be 8.1 nM.

Turning to `CNC(=O)C(=O)[C@H](CCC(C)(F)F)NC(=O)c1cc(Cl)cnc1NC(=O)C12CC(C(F)(F)F)(C1)C2` [Example 2, (S)-5-chloro-N-(6,6-difluoro-1-(methylamino)-1,2-dioxoheptan-3-yl)-2-(3-(trifluoromethyl)bicyclo[1.1.1]pentane-1-carboxamido)nicotinamide], the IC50 amounted to 11.6 nM.

`COC(=O)N[C@H](C(=O)Nc1ccc(Cl)cc1C(=O)N[C@@H](CCC(C)(F)F)C(=O)C(=O)NC1CC1)C(C)(C)C` [Example 3, Methyl ((S)-1-((4-chloro-2-(((S)-1-(cyclopropylamino)-6,6-difluoro-1,2-dioxoheptan-3-yl)carbamoyl)phenyl)amino)-3,3-dimethyl-1-oxobutan-2-yl)carbamate]: the IC50 is 24 nM.

Turning to `CNC(=O)C(=O)[C@H](CCC(C)(F)F)NC(=O)c1cc(Cl)c(F)cc1NC(=O)CCC(F)(F)F` [Example 4, (S)-5-chloro-N-(6,6-difluoro-1-(methylamino)-1,2-dioxoheptan-3-yl)-4-fluoro-2-(4,4,4-trifluorobutanamido)benzamide], the IC50 is 9.9 nM.

As to `CC(F)(F)CC[C@H](NC(=O)c1cc(Cl)cnc1NC(=O)c1cccc(C(F)(F)F)c1)C(=O)C(=O)NC1CC1` [Example 5, (S)-5-chloro-N-(1-(cyclopropylamino)-6,6-difluoro-1,2-dioxoheptan-3-yl)-2-(3-(trifluoromethyl)benzamido)nicotinamide], the IC50 came out at 9.2 nM.

Turning to `CC(F)(F)CC[C@H](NC(=O)c1cc(Cl)ccc1NC(=O)c1ccnc(C(F)(F)F)c1)C(=O)C(N)=O` [Example 7, (S)—N-(2-((1-amino-6,6-difluoro-1_2-dioxoheptan-3-yl)carbamoyl)-4-chlorophenyl)-2-(trifluoromethyl)isonicotinamide], the IC50 came out at 18 nM.

For the molecule `CNC(=O)C(=O)[C@H](CCC(C)(F)F)NC(=O)c1cc(Cl)ccc1NC(=O)C(C)c1cscn1` (stereo partly drawn) [Example 8, 5-chloro-N-[(1S)-4,4-difluoro-1-[2-(methylamino)-2-oxo-acetyl]pentyl]-2-(2-thiazol-4-ylpropanoylamino)benzamide], the IC50 was 6.6 nM.

As for `CNC(=O)C(=O)[C@H](CCC(C)(F)F)NC(=O)c1cc(Cl)ccc1NC(=O)C1CCc2scnc21` (stereo partly drawn) [Example 9, N-[4-chloro-2-[[(1S)-4,4-difluoro-1-[2-(methylamino)-2-oxo-acetyl]pentyl]carbamoyl]phenyl]-5,6-dihydro-4H-cyclopenta[d]thiazole-4-carboxamide], the IC50 is 7 nM.

The record behind these values is US20260209180A1, “PROTEASE INHIBITORS FOR TREATING OR PREVENTING CORONAVIRUS INFECTION” (Merck Sharp & Dohme LLC, priority 2023, published 2026).
